The test system of assay [1] is DsRed-IRES-tau EGFP HEK293 cells. As to the kind of experiment: Flow cytometry of DsRed-IRES-tau EGFP HEK293 cells (tau clearance). In kind it is cell-based, human. As to conditions: 5 μM compound with 100 nM TG for 20 hours. For orientation: Flow cytometry measures light scatter and fluorescence of single cells or particles in a stream.
The target in the next assay is T1, PDIA3 (Homo sapiens, UniProt P30101).
T1 sequence (P30101 25-505): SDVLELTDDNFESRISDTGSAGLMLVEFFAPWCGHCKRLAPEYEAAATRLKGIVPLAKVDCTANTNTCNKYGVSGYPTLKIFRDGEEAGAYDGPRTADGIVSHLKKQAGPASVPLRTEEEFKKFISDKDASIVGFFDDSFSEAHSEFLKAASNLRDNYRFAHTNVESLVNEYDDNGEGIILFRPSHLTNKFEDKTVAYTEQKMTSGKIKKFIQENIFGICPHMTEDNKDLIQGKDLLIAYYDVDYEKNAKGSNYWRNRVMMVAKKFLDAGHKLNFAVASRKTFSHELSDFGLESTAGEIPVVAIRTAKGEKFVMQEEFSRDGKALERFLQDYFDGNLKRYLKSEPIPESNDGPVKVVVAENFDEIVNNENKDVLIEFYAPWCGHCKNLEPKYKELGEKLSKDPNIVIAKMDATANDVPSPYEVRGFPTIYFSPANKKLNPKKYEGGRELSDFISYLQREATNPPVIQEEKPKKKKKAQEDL
Put plainly: Surface plasmon resonance assay. It counts as binding. The note with it: various concentrations, PBS pH 7.3, 25° C. As to the method: Surface plasmon resonance (SPR) assays were performed using a Biacore T100 instrument (GE Healthcare). The recombinant PDIA3 or DNAJC3 protein was immobilized on the CM5 sensor chip (GE Healthcare) through an amide bond by activating the carboxy group on the CM5 sensor chip with a 1:1 mixture of N-ethyl-N′-(3-dimethylaminopropyl)-carbodiimide and N-hydroxysuccinimide. Protein immobilization reactions were performed in PBS containing 0.005% Tween 20 at pH 4.7 and pH 5.0 for PDIA3 and DNAJC3, respectively. Binding between compounds and proteins was monitored by injecting compounds at various concentrations into PBS (pH 7.3) containing 3% DMSO and 0.005% Tween 20 at 25° C. Data were analyzed to calculate kinetic parameters by fitting sensor grams with a 1:1 binding model using Biacore T100 evaluation software (GE Healthcare).
Additionally, it was confirmed whether SB1617 directly binds to PDIA3 and DNAJC3 through surface plasmon resonance (SPR) of Examples 1-11.
In general terms: Surface plasmon resonance follows binding to a sensor surface in real time, without labels.

The next assay relates to Htt-Q74. Put plainly: Level of aggregation-prone mutant protein after treatment. In kind it is cell-based. As to conditions: SB1617 treatment.
The next assay concerns TBI mouse model. As to the kind of experiment: Controlled cortical impact TBI mouse model. It counts as in vivo. As to the method:
CD-1 (ICR) male mice (2-3 months old, 25-35 g body weight; DBL, Korea) were used in the TBI study. […] All mice were fed water and food ad libitum. In order to avoid and minimize transport-related stress, experiments were initiated after a period of one week following transport to allow the animals to acclimatize to environmental conditions.
An experimental controlled cortical impact (CCI) model for TBI was performed as follows. Using an isoflurane vaporizer (VetEquip), the mouse was deeply anesthetized with isoflurane inhaled at 3% in a mixture of 70:30 nitrous oxide and oxygen, and placed in a stereotaxic apparatus. […] An approximately 4 mm incision was made in the right hemisphere using a hand-held drill (midline 2 mm, bregma 1 mm). A controlled cortical impact device (Leica Impact One, Leica Biosystems) was used to accelerate an impact device equipped with a 2 mm flat-tip at a speed of 5 m/sec to a depth of 1.4 mm. […] Traumatic brain injury animal models were randomly generated according to an online randomization tool (randomizer.org). Sham-operated groups performed only craniotomy.
Control mice were intraperitoneally administered with the same volume of vehicle.
Mice were deeply anesthetized by intraperitoneal administration of a mixture of urethane (1.5 g/kg) in saline (0.9% NaCl) at 0.01 mL/g per body weight. The effect of anesthesia was assessed using a toe pinch. Subsequently, saline was perfused into the heart of the mouse, and PBS was mixed with 4% paraformaldehyde and then perfused. Brains were fixed in 4% paraformaldehyde for 1 h and immersed in 30% sucrose for cryoprotection. Then, whole brains were frozen and […] sections were formed on a cryostat microtome (CM1850, Leica) with a thickness of 30 μm.
After washing in PBS, sections were incubated overnight with a mouse monoclonal anti-NeuN antibody (1:500 dilution, Millipore) in PBS containing 0.3% Triton X-100 at 4° C. to assess neuronal loss after TBI. After washing with PBS, sections were incubated in biotinylated anti-mouse IgG (1:250 dilution, Vector) at room temperature for 2 hours […] to detect NeuN antibody and biotinylated anti-rat IgG (1:250 dilution, Vector) to examine the degree of leakage of endogenous immunoglobulin G. Then, the sections were immersed in an avidin-biotin-peroxidase complex (Vector) for 2 hours at room temperature. Between incubations, sections were washed with PBS. […] Immunoreactivity was observed under an Olympus IX70 inverted microscope.
Immunofluorescence labeling was performed according to a conventionally known general immunostaining procedure. […] After washing with PBS, the sections were incubated with each specific type of polyclonal or monoclonal primary antibody with PBS containing 0.3% Triton X-100 overnight at 4° C.
The primary antibodies used in this test are the same as follows: • mouse monoclonal anti-4-hydroxynonenal (4-HNE; diluted 1:500; Alpha Diagnostic International), • mouse monoclonal anti-Tau (Tau5; diluted 1:500; Abcam), • mouse monoclonal anti-phospho Tau (Ser202, Thr205; AT8; diluted 1:200; Invitrogen), • mouse monoclonal anti-PDI (diluted 1:100; Abcam), • rabbit polyclonal anti-ERp57 (diluted 1:100; Abcam), and • goat polyclonal anti-Iba-1 antibody (diluted 1:500; Abcam).
To count NeuN-positive cells, every sixth section was collected posterior to bregma from 1.2 to 2.1 mm at 180 μm intervals. Five coronal sections from each mouse were analyzed using a microscope with a 20×objective. These sections were then coded and provided to a blinded experimenter to count total NeuN-positive cells in hippocampal CA1 and cortex from hippocampal hemispheres. Data were expressed as the average number of NeuN-positive cells per area. To quantify the PDI-, ERp57-, Tau5-, AT8-, and 4HNE- immunofluorescence intensities, five coronal sections were evaluated by a blinded experimenter using ImageJ (National Institute of Health).

The mark [2] stands for this setting: after TBI induction, versus vehicle.
[3] abbreviates: ipsilateral perilesional cortex, 12 and 24 hours after TBI induction.

Take `CN(Cc1ccc(Cl)cc1)c1ncnc2c1[C@@H]1OC[C@H](CN2)N1S(=O)(=O)c1ccc([N+](=O)[O-])cc1` [Compound 117]: the EGFP-to-DsRed signal ratio entry in assay [1] is reported as “decreased”. At PDIA3, the “direct binding (SPR)” value is recorded as “binds directly”. Moreover, the “mutation level of Htt-Q74” value in the assay with Htt-Q74 was “downregulated”. The “neurologic severity score (NSS)” value in the assay on TBI mouse model (1, 4, 24, 48, 72 hours and 7 days after TBI) is recorded as “maintained nerve protection activity”. For the same compound, in the assay with TBI mouse model (setting [2]), the “pole climbing test, time to descend the pole” value is recorded as “significantly reduced” and the “pole climbing test, time to turn the head downward” value is on record as “significantly reduced”. In the assay with TBI mouse model (ipsilateral hemisphere, after TBI), the “level of microglial activation” value is on record as “the activity of microglial cells was improved”. Besides, the “total tau and p-tau levels (Tau5, AT8 immunofluorescence)” value in the assay with TBI mouse model (ipsilateral hippocampal CA1 and cortex, 24 hours after TBI, 5 mg/kg, 2 times a day) is given as “these symptoms were improved”. Moreover, the “Iba-1 levels (neuroinflammation)” value in the assay with TBI mouse model (ipsilateral hippocampal CA1 and cortex, 72 hours after TBI) was “could be improved”. In the assay on TBI mouse model (ipsilateral hippocampal CA1 and cortex, 5 mg/kg, 2 times a day), the “ER stress and oxidative stress (PDI, ERp57 immunofluorescence)” value is listed as “these symptoms were confirmed”. Also, in the assay with TBI mouse model (setting [3]), the “conversion rate from LC3-1 to LC3-II (Western blotting)” value is reported as “the conversion rate from LC3-1 to LC3-II was improved” and the “p62 protein level (Western blotting)” value was “an increase in p62 protein level”.

The values are drawn from patent publication US20230322805A1, “NOVEL PYRIMIDODIAZEPINE DERIVATIVES OR USES THEREOF” (SPARK BIOPHARMA, INC., priority 2020, published 2023).
